Earlier results, collected in patent publication US20080241076A1, “Method and composition for increasing Erythropoietin” (priority 2007, published 2008).

Legend:
[1] = in-vitro, 14C-labeled
kidney production of EPO = details: dog kidneys; substances given separately
erythrocyte = details: Carnitine supplementation
responsiveness to EPO = details: in vivo
hemoglobin levels = details: hemodialysis patients
[2] = human, in vivo
renal EPO production = details: animal studies
[3] = test system: erythrocyte 2,3-bisphosphoglycerate (2,3-BPG); details: following phosphate loading
blood flow = details: animal study
blood clots = details: human trials, feeding
induced clots = details: dogs with induced clots

CCCCC/C=C\C/C=C\C/C=C\C/C=C\CCCC(=O)O [Arachidonic Acid, all-cis-5,8,11,14-eicossatetraenoic acid]
prostaglandins produced from Arachidonic acid [1]: PGD2, PGE2, PGF2 alpha and 6-keto-PGF1 alpha
kidney production of EPO (kidney production of EPO): increased

C[N+](C)(C)CC(O)CC(=O)[O-] (stereo not drawn) [Carnitine]
erythrocyte survival time (erythrocyte): increase

CCCCC[C@H](O)/C=C/[C@H]1[C@H](O)CC(=O)[C@@H]1C/C=C\CCCC(=O)O [PGE2, reference compound]
iron incorporation in RBC (RBC): significant increase
kidney production of EPO (kidney production of EPO): increased

O=C1O[C@H]([C@@H](O)CO)C(O)=C1O [Vitamin C]
responsiveness to EPO (responsiveness to EPO): improve
hemoglobin levels (hemoglobin levels): significant increases

[Se] [selenium]
elemental concentration in whole blood and plasma [2]: significant increase

Vitamin A
renal EPO production (renal EPO production): increase

Vitamin E
endogenous glutathione (endogenous glutathione): stabilize

phosphate
erythrocyte 2,3-BPG [3]: significant increase

B1: Nattokinase: potent fibrinolytic enzyme extracted from a Japanese food called Natto (protein, UniProt P35835 107-381, looked up)
Subtilisin NAT: AQSVPYGISQIKAPALHSQGYTGSNVKVAVIDSGIDSSHPDLNVRGGASFVPSETNPYQDGSSHGTHVAGTIAALNNSIGVLGVAPSASLYAVKVLDSTGSGQYSWIINGIEWAISNNMDVINMSLGGPTGSTALKTVVDKAVSSGIVVAAAAGNEGSSGSTSTVGYPAKYPSTIAVGAVNSSNQRASFSSVGSELDVMAPGVSIQSTLPGGTYGAYNGTSMATPHVAGAAALILSKHPTWTNAQVRDRLESTATYLGNSFYYGKGLINVQAAAQ
regain in blood flow (blood flow): 62%
ability to dissolve blood clots (blood clots): heightened ability to dissolve blood clots
time to regain normal blood circulation (induced clots): within five hours

B2: plasmin: the body's natural fibrinolytic enzyme (protein, UniProt P00747 20-580; P00747 581-810, looked up)
Plasmin heavy chain A: EPLDDYVNTQGASLFSVTKKQLGAGSIEECAAKCEEDEEFTCRAFQYHSKEQQCVIMAENRKSSIIIRMRDVVLFEKKVYLSECKTGNGKNYRGTMSKTKNGITCQKWSSTSPHRPRFSPATHPSEGLEENYCRNPDNDPQGPWCYTTDPEKRYDYCDILECEEECMHCSGENYDGKISKTMSGLECQAWDSQSPHAHGYIPSKFPNKNLKKNYCRNPDRELRPWCFTTDPNKRWELCDIPRCTTPPPSSGPTYQCLKGTGENYRGNVAVTVSGHTCQHWSAQTPHTHNRTPENFPCKNLDENYCRNPDGKRAPWCHTTNSQVRWEYCKIPSCDSSPVSTEQLAPTAPPELTPVVQDCYHGDGQSYRGTSSTTTTGKKCQSWSSMTPHRHQKTPENYPNAGLTMNYCRNPDADKGPWCFTTDPSVRWEYCNLKKCSGTEASVVAPPPVVLLPDVETPSEEDCMFGNGKGYRGKRATTVTGTPCQDWAAQEPHRHSIFTPETNPRAGLEKNYCRNPDGDVGGPWCYTTNPRKLYDYCDVPQCAAPSFDCGKPQVEPKKCPGR
Plasmin light chain B: VVGGCVAHPHSWPWQVSLRTRFGMHFCGGTLISPEWVLTAAHCLEKSPRPSSYKVILGAHQEVNLEPHVQEIEVSRLFLEPTRKDIALLKLSSPAVITDKVIPACLPSPNYVVADRTECFITGWGETQGTFGAGLLKEAQLPVIENKVCNRYEFLNGRVQSTELCAGHLAGGTDSCQGDSGGPLVCFEKDKYILQGVTSWGLGCARPNKPGVYVRVSRFVTWIEGVMRNN
modifications: plasmin
notes: the body's natural fibrinolytic enzyme
regain in blood flow (blood flow): 15.8%
